Values after ≈ are worked out from the molar mass of the structure shown. Read-outs that look alike come from different tables or passages of the source. Square brackets hold non-standard residues; d marks the D form. Peptide text beside a SMILES is read from it. Ahx = NCCCCCC(=O)O; βAla = NCCC(=O)O
Tests used:
Experiment in all cases: microbe, parasite or virus in culture
Assay type in all cases: cell-based, Staphylococcus aureus
[1] = system: MRSA WHO-2; details: read-out: MIC for S. aureus strains, WHO-2
Text: (§1) Secondary structure of rpoD mRNA predicted by RNA structure 4.6 software. […] Building from evidence that 12-base antisense PNAs was an effective length, five plausible target sites located in the region that satisfied both above aspects were chosen for synthesis of complementary antisense PNAs at 12-base length. Effective target site in rpoD was verified by modified MIC test of PPNA in four S. aureus strains with different characteristics in resistance phenotype. All PNAs used are covalently conjugated with the same cell penetrating peptide (KFF)3K at the carbon terminus (corresponding to the 3′ end of a conventional oligonucleotide).
(§2) Optimal anti-rpoD PPNA was selected by minimal inhibitory concentration (MIC) results determined for clinical isolates of pathogenic S. aureus species.
(§3) MICs were determined twice by the microdilution assay in sterilized 96-well polypropylene microtiter plates according to the broth microdilution guideline based on Good et al.. Briefly, single colony overnight culture of subjected bacterial cells was diluted to give a final inoculation at 10^5 CFU/mL in duplicate 100 µL Mueller Hinton (MH) broth in a low-binding 96-well microtiter plate. Stocks of PPNA, Scr PPNA and CPPs were added immediately to the indicated final concentrations. Plates were incubated at 35°C in aerobic environment for 24 h of overnight culture. MICs were the lowest PNA concentrations that prevented bacterial growth by visual inspection after overnight (24 h) growth. To verify the specific antisense effect, peptide was also conjugated to a scrambled PNA with a base sequence that was not complementary to the selected target site of rpoD mRNA. To control for nonspecific toxicity, the MIC of the control CPPs (KFF)3K and (RXR)4XB in all cases, was above the limit of measurement, which was 60 or 30 µM.

[2] = system: MRSA XIJING (MDR clinical isolate); details: broth microdilution, MH broth, inoculum 10^5 CFU/mL, 35°C, 24 h, visual inspection, determined twice, read-out: MIC for S. aureus strains, XIJING
Text: as §1, §2, §3

[3] = system: MRSA/VISA Mu50; details: broth microdilution, MH broth, inoculum 10^5 CFU/mL, 35°C, 24 h, visual inspection, determined twice, read-out: MIC for S. aureus strains, Mu 50
Text: as §1, §2, §3

[4] = system: S. aureus ATCC29213; details: read-out: MIC for S. aureus strains, ATCC 29213
Text: as §1, §2, §3

[5] = Staphylococcus aureus, broth microdilution, MH broth, inoculum 10^5 CFU/mL, 35°C, 24 h, visual inspection, determined twice, MRSA
[6] = Staphylococcus aureus, ATCC29213, broth microdilution, MH broth, inoculum 10^5 CFU/mL, 35°C, 24 h, visual inspection, determined twice, antibiotic sensitive QC strain

| SMILES | MIC ([1]; broth microdilution, MH broth, inoculum 10^5 CFU/mL, 35°C, 24 h, visual inspection, determined twice, MRSA) [µM] | MIC [2] [µM] | MIC [3] [µM] | MIC ([4]; broth microdilution, MH broth, inoculum 10^5 CFU/mL, 35°C, 24 h, visual inspection, determined twice, antibiotic sensitive QC strain) [µM] | MIC [1, 5] [µM] | MIC ([2]; Staphylococcus aureus) [µM] | MIC ([3]; Staphylococcus aureus) [µM] | MIC [4, 6] [µM] | MIC ([1]; WHO-2, 24 h) [µM] | MIC ([4]; ATCC29213, 24 h) [µM] |
| --- | --- | --- | --- | --- | --- | --- | --- | --- | --- | --- |
| CC(C)(O/N=C(\C(=O)N[C@@H]1C(=O)N2C(C(=O)[O-])=C(C[n+]3ccccc3)CS[C@H]12)c1csc(N)n1)C(=O)O [ceftazidine] | 256 (≈ 140 µg/mL) | >1024 | 1024 (≈ 560 µg/mL) | 8 (≈ 4.37 µg/mL) | – | – | – | – | – | – |
| CC1(C)S[C@@H]2[C@H](NC(=O)[C@H](N)c3ccccc3)C(=O)N2[C@H]1C(=O)O [ampicillin] | – | – | – | – | 256 (≈ 89.4 µg/mL) | > 1020 | > 1020 | 1 (≈ 0.349 µg/mL) | – | – |
| Cc1onc(-c2ccccc2)c1C(=O)N[C@@H]1C(=O)N2[C@@H]1SC(C)(C)[C@@H]2C(=O)O [oxacillin] | – | – | – | – | 512 (≈ 206 µg/mL) | > 1020 | > 1020 | 0.5 (≈ 0.201 µg/mL) | – | – |
| NCCCC[C@H](NC(=O)[C@H](Cc1ccccc1)NC(=O)[C@H](Cc1ccccc1)NC(=O)[C@H](CCCCN)NC(=O)[C@H](Cc1ccccc1)NC(=O)[C@H](Cc1ccccc1)NC(=O)[C@H](CCCCN)NC(=O)[C@H](Cc1ccccc1)NC(=O)[C@H](Cc1ccccc1)NC(=O)[C@@H](N)CCCCN)C(=O)O [(KFF)3K] (H-KFFKFFKFFK-OH) | – | – | – | – | – | – | – | – | >60 | >60 |
| N=C(N)NCCC[C@H](NC(=O)CCCCCNC(=O)[C@H](CCCNC(=N)N)NC(=O)[C@H](CCCNC(=N)N)NC(=O)CCCCCNC(=O)[C@H](CCCNC(=N)N)NC(=O)[C@H](CCCNC(=N)N)NC(=O)CCCCCNC(=O)[C@H](CCCNC(=N)N)NC(=O)[C@H](CCCNC(=N)N)NC(=O)CCCCCNC(=O)[C@@H](N)CCCNC(=N)N)C(=O)NCCCCCC(=O)NCCC(=O)O [(RXR)4XB] (H-R[Ahx]RR[Ahx]RR[Ahx]RR[Ahx]R[Ahx][βAla]-OH) | – | > 30 | > 30 | – | – | – | – | – | > 30 | > 30 |

— paper PMC3254626, “Targeting RNA Polymerase Primary σ^70 as a Therapeutic Strategy against Methicillin-Resistant Staphylococcus aureus by Antisense Peptide Nucleic Acid” (PLoS ONE, 2012)
